Data published in publication PMC6383948, “Evaluation of a class of isatinoids identified from a high-throughput screen of human kinase inhibitors as anti-Sleeping Sickness agents” (PLoS Neglected Tropical Diseases, 2019).
“And” between values parts separate entries of the source, which are not always exact repeats. Identical values can stand only once. Like-named read-outs stand apart in the source and are kept apart here.

What was measured:
[1] = system: S. mansoni adults and somules; test: S. mansoni phenotypic assay, adults and somules (severity score); format: cell-based, Schistosoma mansoni (NMRI isolate); settings: for activity against S. mansoni adults and/or somules: 10 μM; for Adult severity score (10 μM): adults; for Adult severity score (10 μM) / Somule severity score (10 μM): score 0-4; for Somule severity score (10 μM): somules
Experimental: Maintenance of the Schistosoma mansoni life cycle, preparation of somules (post-infective larvae) and adult worms (≥42-days-old), and co-incubation of these stages with test compounds were as described. An NMRI isolate of S. mansoni was used for all whole-organism screens.
Somules (40 units/well/96w round-bottomed plate) or adults (five paris/well/24w plate) were cultured in the presence of compounds at 10 µM and phenotypic changes observed as a function of time using an Zeiss Axiovert A1 inverted microscope (Table S4). A constrained nomenclature was used to describe the effects of compounds on parasites (changes in shape, motility and density). To generate a partially quantitative output for comparing drug effects, each descriptor was awarded a score of 1 and these were summed to a maximum score of 4 [7-10]: evidence of degeneracy or death was awarded the maximum score of 4. For adults specifically, damage to the tegument (outer surface) was also awarded a score of 4 based on the indication that damage to the patrasite’s surface is lethal in vivo [11]. Assays were performed twice and representative data are shown.

[2] = Shake-flask octanol-water Log D7.4; format: physicochemical; settings: pH 7.4, octanol-water shake-flask
Experimental: Shake-flask octanol-water distribution coefficient at pH 7.4 (Log D7.4). The aqueous solution used is 10 mM sodium phosphate pH 7.4 buffer. The method has been validated for Log D7.4 ranging from -2 to 5.0.

[3] = Mouse pharmacokinetics, blood and brain levels after IP dose; format: in vivo; settings: for Brain level: LLOQ = 25 ng/g; for AUC0-t / Cmax / Tmax: blood
Experimental: NEU-4391 was administered intraperitoneally (IP) to two groups of female NMRI mice (Group 1 n = 3; Group 2 n = 6). The compound was prepared in 1% (v/v) DMSO:99% (v/v) 20% (w/v) sulfobutyl ether-beta-cyclodextrin (SBE-β-CD) (Captisol) in water and the dosing volume was 10 mL/kg for a total dose of 10 mg/kg. Food and tap water were available ad libitum. Following IP dosing, Group 1 blood samples were collected from the tail vein into capillary tubes containing K2EDTA at the following time-points: 0.0833, 0.25, 0.5, 1, 2, 4, 6, 8 and 24 h.
In order to obtain simultaneous blood and brain samples, Group 2 mice were placed under terminal anaesthetic (isoflurane) and blood samples (0.3 mL) collected from the retro-orbital sinus into K2EDTA tubes at 0.5 h (n = 3) and 4 h (n = 3) after compound administration. Immediately following blood sample collection, death was confirmed by cervical dislocation and the brain removed. Aliquots of each blood sample were diluted in an equal volume of water. Mouse brain samples were weighed, water was added at a 1/2 (w/v) ratio (brain/water), and then homogenized. Both blood and brain samples were stored -80°C until analysis.
Diluted blood and brain homogenates were processed under standard liquid-liquid extraction procedures using acetonitrile containing an internal standard (Nifedipine) and analyzed by LC-MS/MS. Non-compartmental analysis was performed using the Phoenix pharmacokinetic software version 1.4 (Certara) and Cmax, tmax, AUClast, AUC, and t1/2 were estimated.

[4] = IP 10 mg/kg single dose, individual mice 001F-003F, 10 mg/kg

CN(C)S(=O)(=O)c1ccc(N/N=C2\C(=O)Nc3ccccc32)cc1 [NEU-2118, (Z)-N,N-Dimethyl-4-(2-(2-oxoindolin-3-ylidene)hydrazinyl)benzenesulfonamide]
activity against S. mansoni adults and/or somules [1]: moderate and variable activity
Adult severity score (10 μM) ([1]; 3h): 3
Adult severity score (10 μM) ([1]; 6h): 3
Adult severity score (10 μM) ([1]; 24h): 3
Adult severity score (10 μM) ([1]; 48h): 3
Somule severity score (10 μM) ([1]; 24h): 0
Somule severity score (10 μM) ([1]; 48h): 0
logD [2]: 3.4

CNS(=O)(=O)c1ccc(N/N=C2\C(=O)Nc3ccccc32)cc1 [NEU-2124, (Z)-N-Methyl-4-(2-(2-oxoindolin-3-ylidene)hydrazinyl)benzenesulfonamide]
activity against S. mansoni adults and/or somules [1]: moderate and variable activity
Adult severity score (10 μM) ([1]; 3h): 2
Adult severity score (10 μM) ([1]; 6h): 2
Adult severity score (10 μM) ([1]; 24h): 2
Adult severity score (10 μM) ([1]; 48h): 2
Somule severity score (10 μM) ([1]; 24h): 1
Somule severity score (10 μM) ([1]; 48h): 0
logD [2]: 2.8

CNS(=O)(=O)c1ccc(N/N=C2\C(=O)Nc3cccc(C=C(C)C)c32)cc1 [NEU-4391, (Z)-N-Methyl-4-(2-(4-(2-methylprop-1-en-1-yl)-2-oxoindolin-3-ylidene)hydrazinyl)benzenesulfonamide]
Brain level ([3]; 0.5 h after IP 10 mg/kg, individual mice N1-N3): <LLOQ
Blood level ([3]; 0.5 h after IP 10 mg/kg, individual mice N1-N3, LLOQ = 25 ng/mL, 10 mg/kg): <LLOQ and 43.3 ng/mL
Brain level ([3]; 4.0 h after IP 10 mg/kg, individual mice N1-N3): <LLOQ
Blood level ([3]; 4.0 h after IP 10 mg/kg, individual mice N1-N3, LLOQ = 25 ng/mL): <LLOQ
Peripheral blood concentrations after 1 h ([3]; IP 10 mg/kg, Fig 6A): below the lower limit of quantitation
concentration in the brain ([3]; IP 10 mg/kg, all time points): below the limit of detection
AUC0-t [3, 4]: 0.0345 µg·h/mL and 0.0392 µg·h/mL
Cmax [3, 4]: 0.045 µg/mL and 0.0565 µg/mL
Tmax [3, 4]: 30 min
concentration at 0.5 h ([3]; female, NMRI, mouse, whole blood, ip, 10 mg/kg, 0.5 h after IP 10 mg/kg, individual mice N1-N3, LLOQ = 25 ng/mL, read-out: Blood level): 0.0507 µg/mL
concentration at 0.5 h ([3]; female, NMRI, mouse, whole blood, ip, 10 mg/kg, 0.5 h after IP 10 mg/kg, read-out: Blood level (mean)): 0.047 µg/mL
AUC0-t ([3]; female, NMRI, mouse, whole blood, ip, 10 mg/kg, IP 10 mg/kg single dose, individual mice 001F-003F, read-out: AUC0-t): 0.0393 µg·h/mL
Cmax ([3]; female, NMRI, mouse, whole blood, ip, 10 mg/kg, IP 10 mg/kg single dose, individual mice 001F-003F, read-out: Cmax): 0.0489 µg/mL
Tmax ([3]; female, NMRI, mouse, whole blood, ip, 10 mg/kg, IP 10 mg/kg single dose, individual mice 001F-003F, read-out: tmax): 15 min
AUC0-t ([3]; female, NMRI, mouse, whole blood, ip, 10 mg/kg, IP 10 mg/kg, mean of n = 3, read-out: AUC0-t (mean)): 0.0377 µg·h/mL
Cmax ([3]; female, NMRI, mouse, whole blood, ip, 10 mg/kg, IP 10 mg/kg, mean of n = 3, read-out: Cmax (mean)): 0.0501 µg/mL
Tmax ([3]; female, NMRI, mouse, whole blood, ip, 10 mg/kg, IP 10 mg/kg, n = 3, read-out: tmax (mean row, range)): 15 to 30 min
Cmax ([3]; female, NMRI, mouse, whole blood, ip, 10 mg/kg, IP 10 mg/kg, read-out: Cmax): 0.13 µM
